Reference: article PMC3183052, “Immunoprotectivity of HLA-A2 CTL Peptides Derived from Respiratory Syncytial Virus Fusion Protein in HLA-A2 Transgenic Mouse” (PLoS ONE, 2011)

How the values were obtained:
HLA-A*0201 = target: T1, HLA-A*0201 (Homo sapiens, UniProt P04439, D140Y/D185E/D98H/E176V/E277Q/G131W/G231S/I119V/I121R/I166T/I218V/L300P/L318F/N151K/N90K/P208A/P217A/Q86G/Q94H/R138H/R169H/T345S); assay: T2 cell-stabilization assay (T2-binding); conditions: for T2-binding Ratio of MFI: T2 cells 5×10^5, peptide 50 µg/mL + β2-microglobulin 5 µg/mL, 28°C 16–18 h, then brefeldin A 10 µg/mL 37°C 3 h, FITC anti-HLA-A2, flow cytometry, MFI relative to negative control HCV C55-74 (set as 1); for binding affinity, MFI higher than the baseline: baseline = negative control HCV C55-74, called modest binding affinity
T1 construct: Human T2 cells (purchased from the American Type Culture Collection, ATCC) (ATCC No. CRL-1992) expressing the HLA-A*0201 gene; endogenous in cells; host or cells: human T2 cells (ATCC CRL-1992)
Procedure: T2 cells (5×10^5) cultured in 96-well U-bottom plates were incubated with the individual 9-mer synthetic peptides (50 µg/mL) and β2-microglobulin (5 µg/mL; Sigma-Aldrich) at 28°C for 16–18 hours. Subsequently, brefeldin A (10 µg/mL) was added and the cells were incubated at 37°C for another 3 hours, then washed and stained with fluorescence isothiocyanate (FITC)-conjugated mouse anti-human HLA-A2 antibody (SeroTec). Peptide-loaded T2 cells were acquired and analyzed on the FACScan flow cytometer using CellQuest software (Becton Dickinson). GLC-9 peptide was used as positive control (PC). The mean fluorescence intensity (MFI) represents the binding affinity of each peptide compared to MFI (set as MFI = 1) obtained from negative control (NC), which is T2 cells loaded with HCV peptide C55-74.
Twenty-five 9-mer synthetic peptides derived from the RSV F glycoprotein sequence presumed to encompass HLA-A*0201 binding motifs were synthesized (Table 1). Each was tested for its ability to bind HLA-A*0201 molecules by T2 cell-based binding assay (data not shown). The relative mean fluorescence intensity (MFI) obtained from the positive control (PC) peptide derived from Epstein-Barr virus capsid protein (GLC-9, a previously defined HLA-A*0201-restricted CTL epitope) was twofold (MFI = 1.96) compared to the baseline MFI = 1 obtained from the negative control (NC) treated with an unrelated peptide HCV C55-74 (a C57BL/6-specific CD4 epitope). […] The remaining peptides had no detectable binding to the HLA-A*0201 molecules. Apparently, the different MFIs generated by binding of RSV F-derived peptides to HLA-A*0201 reflects on the binding specificity of different peptides to a given HLA molecule.

[1] = tested on: splenocytes from HLA-A*0201 transgenic C57BL/6 mice; assay: IFN-γ ELISPOT of splenocytes restimulated with peptide; assay type: cell-based, mouse; conditions: for IFN-γ ELISPOT, RSV: splenocytes of HLA-Tg B6 mice primed and boosted i.n. with 10^4 pfu RSV-B1; for IFN-γ ELISPOT, RSV / IFN-γ ELISPOT, rAd-F0: restimulated with 2 µg peptide, representative of two experiments, five mice per group; for IFN-γ ELISPOT, rAd-F0: splenocytes of HLA-Tg B6 mice primed and boosted i.n. with 10^7 pfu rAd-F0; for IFN-γ level in restimulated splenocytes (ELISPOT, text grading): splenocytes of rAd-F0- or RSV B1-primed and boosted HLA-Tg B6 mice, high = over 100 spots, moderate = over 50 spots
Procedure: (§1) To screen the immunodominance of epitopic peptide in the induction of RSV-F specific Th1/Th2 expression, HLA-A*0201 transgenic C57BL/6 mice were anesthetized with isoflurane and immunized with 1×10^7 pfu/50 µL of rAd-F0 or rAd-LacZ or 1×10^4 live RSV B1 via the intranasal (i.n.) route. Twenty days later, the mice were given booster immunization i.n. with the same dose. After 10 days of boost, mice were sacrificed and splenocytes were isolated for the cytokine ELISPOT assay. For peptide-based vaccination, transgenic mice were immunized subcutaneously (s.c.) with 50 µg of the individual synthetic peptides emulsified in 25 µL of incomplete Freund's adjuvant (IFA) (Sigma-Aldrich) and then boosted after 10 days s.c. with the same dose of the respective peptides mixed with IFA. Mice were sacrificed 7 days after the booster and splenocytes were isolated for in vitro peptide-restimulation. For challenge studies, 10^7 pfu of live RSV-B1 was administered i.n. seven days after the booster immunization with peptide vaccines. Mice were sacrificed on day 4 post-challenge and the lung tissues were collected and subjected to further analysis by flow cytometry, ELISA, CTL assay and immunohistochemistry. Mice body weight was monitored daily.
(§2) […] RBC-free splenocyte suspensions prepared from the individual mice were seeded in individual wells of 96-well filtration plates (Millipore) precoated with capturing monoclonal antibodies for murine IL-2, IL-4 or IFN-γ (0.5 µg/ well) (eBioscience) and blocked with conditioned medium (CM) for 1 hour at room temperature. The splenocytes were added with the individual RSV F 9-mer synthetic peptides (2 µg each) or GLC-9 dissolved in CM (100 µL). The splenocytes added with Con A (10 µg/mL) were used as positive control. Unstimulated splenocytes were used as negative control. The plates were kept in a 37°C incubator equilibrated with 5% CO2 for 48 hours. The individual wells of the ELISPOT plates were washed three times with washing buffer (0.05% tween20 in PBS, PBS-T), and then 0.2 µg of the corresponding biotinylated detection monoclonal antibodies specific for IL-2, IL-4 and IFN-γ were added to detect the respective cytokines. After 2 hours of incubation at room temperature, the plates were washed and 100 µl of streptavidin-alkaline phosphatase (1∶ 250 dilution) was added to the individual wells, and the plates were incubated at room temperature for 45 minutes. Finally, the plates were washed four times with the wash buffer, and 100 µl of AEC (3-amine-9-ethylcarbazole, Sigma-Aldrich) substrate was added to each well and allowed to react for 30 minutes at room temperature in the dark. The plates were then washed with water, air-dried overnight, and the spots per well were scored using the immunospot counting reader (C.T.L. IMMUNOSPOT, CELLULAR TECHNOLOGY LTD). Results were expressed as the number of cytokine-secreting cells per 5×10^5 splenocytes seeded in the initial culture.
(§3) Figure 1 Induction of IFN-γ and IL-2 in splenocytes from RSV F peptide immunized HLA-A*0201 transgenic mice upon secondary recall. Splenocytes harvested on day 30 from HLA-A-Tg B6 mice primed and boosted at 20 days interval intranasally with 10^7 pfu of rAd-F0 (□) or 10^4 pfu of RSV-B1 (▪)were restimulated with 2 µg of the individual RSV F peptide or 10 µg/ml Con A for 5 days in the presence of murine IL-2 . After stimulation, 5×10^5 splenocytes were seeded to anti-IFN-γ (A) or anti-IL-2 (B) capture antibody coated ELISPOT plates for 2 days for ELISPOT assay as described in Materials and Methods. Cytokine-positive immunospots were developed and the results are expressed as the number of immunospots +/−2 standard deviations for each experimental group. Data is representative of results derived from two independent experiments, each with five mice per group.

[2] = tested on: splenocytes from HLA-A*0201 transgenic C57BL/6 mice; assay: IL-2 ELISPOT of splenocytes restimulated with peptide; assay type: cell-based, mouse; conditions: for IL-2 ELISPOT, RSV: splenocytes of HLA-Tg B6 mice primed and boosted i.n. with 10^4 pfu RSV-B1; for IL-2 ELISPOT, RSV / IL-2 ELISPOT, rAd-F0: restimulated with 2 µg peptide, representative of two experiments, five mice per group; for IL-2 ELISPOT, rAd-F0: splenocytes of HLA-Tg B6 mice primed and boosted i.n. with 10^7 pfu rAd-F0; for IL-2 level in restimulated splenocytes (ELISPOT, text grading): splenocytes of rAd-F0- or RSV B1-primed and boosted HLA-Tg B6 mice, high = over 100 spots, moderate = over 50 spots
Procedure: as §1, §2, §3

Substance: 4: HLA-A*0201-restricted 9-mer synthetic peptide from F protein of RSV-B1 strain (ELDKYKNAV) [compound 4]
- T2-binding Ratio of MFI (HLA-A*0201): 0.94
- IFN-γ ELISPOT, RSV [1]: 34.5 cytokine-secreting cells per 5×10^5 splenocytes
- IFN-γ ELISPOT, rAd-F0 [1]: 88.5 cytokine-secreting cells per 5×10^5 splenocytes
- IFN-γ level in restimulated splenocytes (ELISPOT, text grading) [1]: over 50 spots
- IL-2 ELISPOT, RSV [2]: 51.5 cytokine-secreting cells per 5×10^5 splenocytes
- IL-2 ELISPOT, rAd-F0 [2]: 49.5 cytokine-secreting cells per 5×10^5 splenocytes
- IL-2 level in restimulated splenocytes (ELISPOT, text grading) [2]: over 50 spots

Substance: 5: HLA-A*0201-restricted 9-mer synthetic peptide from F protein of RSV-B1 strain (FMNYTLNNT) [compound 5]
- T2-binding Ratio of MFI (HLA-A*0201): 0.96
- IFN-γ ELISPOT, RSV [1]: 12.5 cytokine-secreting cells per 5×10^5 splenocytes
- IFN-γ ELISPOT, rAd-F0 [1]: 73 cytokine-secreting cells per 5×10^5 splenocytes
- IFN-γ level in restimulated splenocytes (ELISPOT, text grading) [1]: over 50 spots
- IL-2 ELISPOT, RSV [2]: 58.5 cytokine-secreting cells per 5×10^5 splenocytes
- IL-2 ELISPOT, rAd-F0 [2]: 38 cytokine-secreting cells per 5×10^5 splenocytes
- IL-2 level in restimulated splenocytes (ELISPOT, text grading) [2]: over 50 spots

Substance: 6: HLA-A*0201-restricted 9-mer synthetic peptide from F protein of RSV-B1 strain (FLLGVGSAI) [compound 6]
- binding affinity, MFI higher than the baseline (HLA-A*0201; T2 cell-based binding assay): ~10%
- T2-binding Ratio of MFI (HLA-A*0201): 1.14
- IFN-γ ELISPOT, RSV [1]: 61.5 cytokine-secreting cells per 5×10^5 splenocytes
- IFN-γ ELISPOT, rAd-F0 [1]: 65 cytokine-secreting cells per 5×10^5 splenocytes
- IFN-γ level in restimulated splenocytes (ELISPOT, text grading) [1]: over 50 spots
- IL-2 ELISPOT, RSV [2]: 32 cytokine-secreting cells per 5×10^5 splenocytes
- IL-2 ELISPOT, rAd-F0 [2]: 29 cytokine-secreting cells per 5×10^5 splenocytes

Substance: 7: HLA-A*0201-restricted 9-mer synthetic peptide from F protein of RSV-B1 strain (HLEGEVNKI) [compound 7]
- T2-binding Ratio of MFI (HLA-A*0201): 0.83
- IFN-γ ELISPOT, RSV [1]: 81 cytokine-secreting cells per 5×10^5 splenocytes
- IFN-γ ELISPOT, rAd-F0 [1]: 68.5 cytokine-secreting cells per 5×10^5 splenocytes
- IFN-γ level in restimulated splenocytes (ELISPOT, text grading) [1]: over 50 spots
- IL-2 ELISPOT, RSV [2]: 33 cytokine-secreting cells per 5×10^5 splenocytes
- IL-2 ELISPOT, rAd-F0 [2]: 68 cytokine-secreting cells per 5×10^5 splenocytes
- IL-2 level in restimulated splenocytes (ELISPOT, text grading) [2]: over 50 spots

Substance: 8: HLA-A*0201-restricted 9-mer synthetic peptide from F protein of RSV-B1 strain (ALLSTNKAV) [compound 8]
- binding affinity, MFI higher than the baseline (HLA-A*0201; T2 cell-based binding assay): ~10%
- T2-binding Ratio of MFI (HLA-A*0201): 1.50
- IFN-γ ELISPOT, RSV [1]: 86 cytokine-secreting cells per 5×10^5 splenocytes
- IFN-γ ELISPOT, rAd-F0 [1]: 36 cytokine-secreting cells per 5×10^5 splenocytes
- IFN-γ level in restimulated splenocytes (ELISPOT, text grading) [1]: over 50 spots
- IL-2 ELISPOT, RSV [2]: 43 cytokine-secreting cells per 5×10^5 splenocytes
- IL-2 ELISPOT, rAd-F0 [2]: 8.5 cytokine-secreting cells per 5×10^5 splenocytes

Substance: 9: HLA-A*0201-restricted 9-mer synthetic peptide from F protein of RSV-B1 strain (LLSTNKAVV) [compound 9]
- T2-binding Ratio of MFI (HLA-A*0201): 1.53
- IFN-γ ELISPOT, RSV [1]: 1 cytokine-secreting cells per 5×10^5 splenocytes
- IFN-γ ELISPOT, rAd-F0 [1]: 27.5 cytokine-secreting cells per 5×10^5 splenocytes
- IL-2 ELISPOT, RSV [2]: 2 cytokine-secreting cells per 5×10^5 splenocytes
- IL-2 ELISPOT, rAd-F0 [2]: 5 cytokine-secreting cells per 5×10^5 splenocytes

Substance: 10: HLA-A*0201-restricted 9-mer synthetic peptide from F protein of RSV-B1 strain (STNKAVVSL) [compound 10]
- T2-binding Ratio of MFI (HLA-A*0201): 0.91
- IFN-γ ELISPOT, RSV [1]: 9.5 cytokine-secreting cells per 5×10^5 splenocytes
- IFN-γ ELISPOT, rAd-F0 [1]: 43 cytokine-secreting cells per 5×10^5 splenocytes
- IL-2 ELISPOT, RSV [2]: 39.5 cytokine-secreting cells per 5×10^5 splenocytes
- IL-2 ELISPOT, rAd-F0 [2]: 0 cytokine-secreting cells per 5×10^5 splenocytes

Substance: RPQPRGRRQPIPKARQPEGR [HCV C55-74, reference compound]
- binding to the HLA-A*0201 molecules (in words) (HLA-A*0201; T2 cell-based binding assay): no binding
- T2-binding Ratio of MFI (HLA-A*0201): 1
- T2-binding Ratio of MFI (HLA-A*0201; listed as N): 1.00
